Experimental data as given in patent US8669249B2, “Poly (ADP-ribose) polymerase (PARP) inhibitors” (Takeda Pharmaceutical Company Limited, priority 2009, dated 2014).

Columns and labels:
Jurkat cell line = experiment: PARP cellular chemopotentiation assay (MTS, with/without TMZ); assay type: cell-based; settings: Chemopotentiation factor: ratio of EC50 values of Jurkat cells co-treated without and with 100 μM TMZ; 96 hours
Method in brief: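 Jurkat cells, 10,000/well, pre-cultured 24 h, then treated 96 h with serial compound dilutions (0.5% DMSO) with or without 100 μM TMZ. Viability by MTS conversion (OD490), normalized to DMSO controls; EC50 from curve fits, PF50 = EC50 without TMZ / EC50 with TMZ.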

PARP = target: T1, PARP (Homo sapiens, UniProt P09874); experiment: PARP ELISA (ELISA-based colorimetric PARP/Apoptosis Assay kit, Trevigen); assay type: biochemical; settings: pIC50=-log10 IC50, IC50 in mol/L; inhibition of PARP catalytic activity
T1 construct: purchased Trevigen 4684-096-K HT (kit); 4684-096-01 (PARP enzyme)
Method in brief: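 Quenched after 10 min catalysis by aspiration and four PBS/0.1% Triton X-100 washes. Poly(ADP-ribose) detected with mouse anti-PAR monoclonal antibody, goat anti-mouse IgG-HRP and HRP substrate; colorimetric signal proportional to PARP catalytic activity.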

T1 sequence (P09874 whole entry): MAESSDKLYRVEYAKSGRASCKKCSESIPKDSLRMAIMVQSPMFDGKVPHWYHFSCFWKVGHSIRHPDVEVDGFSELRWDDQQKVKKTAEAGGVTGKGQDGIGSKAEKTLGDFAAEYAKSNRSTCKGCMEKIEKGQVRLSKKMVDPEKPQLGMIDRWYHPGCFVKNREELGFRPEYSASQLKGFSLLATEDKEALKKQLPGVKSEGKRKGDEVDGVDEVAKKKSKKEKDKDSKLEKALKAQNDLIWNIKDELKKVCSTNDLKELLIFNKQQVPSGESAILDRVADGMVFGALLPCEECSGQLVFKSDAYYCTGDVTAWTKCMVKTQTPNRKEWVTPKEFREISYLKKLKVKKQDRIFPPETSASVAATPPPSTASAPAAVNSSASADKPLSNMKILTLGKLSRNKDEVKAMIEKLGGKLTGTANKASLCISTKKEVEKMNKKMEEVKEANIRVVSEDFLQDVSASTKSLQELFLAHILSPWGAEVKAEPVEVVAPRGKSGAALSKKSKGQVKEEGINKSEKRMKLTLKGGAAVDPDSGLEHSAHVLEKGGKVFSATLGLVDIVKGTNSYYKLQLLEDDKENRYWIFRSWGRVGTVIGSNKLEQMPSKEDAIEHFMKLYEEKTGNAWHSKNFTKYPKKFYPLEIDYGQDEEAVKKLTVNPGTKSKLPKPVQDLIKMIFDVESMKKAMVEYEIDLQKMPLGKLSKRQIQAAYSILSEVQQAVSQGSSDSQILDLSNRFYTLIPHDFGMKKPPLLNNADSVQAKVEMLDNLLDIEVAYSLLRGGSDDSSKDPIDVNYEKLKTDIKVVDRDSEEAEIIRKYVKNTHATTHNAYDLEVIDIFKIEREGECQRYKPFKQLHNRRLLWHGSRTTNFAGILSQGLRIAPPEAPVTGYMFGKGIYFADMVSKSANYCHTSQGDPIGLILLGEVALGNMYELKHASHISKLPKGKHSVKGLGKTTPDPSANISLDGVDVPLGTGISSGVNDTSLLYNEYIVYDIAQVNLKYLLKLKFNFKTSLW

IC50 (PARP)	SMILES	PF50 (Jurkat cell line)
31.6 nM	CNC(=O)c1ccc(N2CCN(Cc3cc4c(c(OC)c3)OC(C)C(=O)N4)CC2)c(C)c1 (stereo not shown) [Compound 362, 4-(4-((8-Methoxy-2-methyl-3-oxo-3,4-dihydro-2H-benzo[b][1,4]oxazin-6-yl)methyl)piperazin-1-yl)-N,3-dimethylbenzamide]	>1700
31.6 nM	CCNC(=O)c1ccc(N2CCN(Cc3cc4c(c(OC)c3)OC(C)C(=O)N4)CC2)c(C)c1 (stereo not shown) [Compound 363, N-ethyl-4-(4-((8-methoxy-2-methyl-3-oxo-3,4-dihydro-2H-benzo[b][1,4]oxazin-6-yl)methyl)piperazin-1-yl)-3-methylbenzamide]	6522
31.6 nM	CNC(=O)c1ccc(N2CCN(Cc3cc4c(c(OC)c3)OC(C)C(=O)N4)CC2)c(F)c1 (stereo not shown) [Compound 365, 3-Fluoro-4-(4-((8-methoxy-2-methyl-3-oxo-3,4-dihydro-2H-benzo[b][1,4]oxazin-6-yl)methyl)piperazin-1-yl)-N-methylbenzamide]	1.3
25.1 nM	CNC(=O)c1ccc(N2CCN(Cc3cc4c(c(OC)c3)OC(C)C(=O)N4)CC2)c(Cl)c1 (stereo not shown) [Compound 366, 3-Chloro-4-(4-((8-methoxy-2-methyl-3-oxo-3,4-dihydro-2H-benzo[b][1,4]oxazin-6-yl)methyl)piperazin-1-yl)-N-methylbenzamide]	4.6
> 200 nM	CCNC(=O)c1ccc(N2CCN(Cc3ccc4c(c3)NC(=O)CO4)CC2)c(Cl)c1 [Compound 367, 3-Chloro-N-ethyl-4-(4-((3-oxo-3,4-dihydro-2H-benzo[b][1,4]oxazin-6-yl)methyl)piperazin-1-yl)benzamide]	2.5
79.4 nM	CCNC(=O)c1ccc(N2CCN(Cc3cc4c(c(OC)c3)OCC(=O)N4)CC2)c(Cl)c1 [Compound 370, 3-Chloro-N-ethyl-4-(4-((8-methoxy-3-oxo-3,4-dihydro-2H-benzo[b][1,4]oxazin-6-yl)methyl)piperazin-1-yl)benzamide]	5.0
15.8 nM	CCNC(=O)c1ccc(N2CCN(Cc3ccc4c(c3)NC(=O)C(C)O4)CC2)c(Cl)c1 (stereo not shown) [Compound 371, 3-Chloro-N-ethyl-4-(4-((2-methyl-3-oxo-3,4-dihydro-2H-benzo[b][1,4]oxazin-6-yl)methyl)piperazin-1-yl)benzamide]	>20
20 nM	COc1cc(CN2CCN(c3ccc(C(=O)NC4CC4)cc3F)CC2)cc2c1OC(C)C(=O)N2 (stereo not shown) [Compound 372, N-Cyclopropyl-3-fluoro-4-{4-[(8-methoxy-2-methyl-3-oxo-3,4-dihydro-2H-1,4-benzoxazin-6-yl)methyl]piperazin-1-yl}benzamide]	1.0
20 nM	COc1cc(CN2CCN(c3ccc(C(=O)NC4CC4)cc3Cl)CC2)cc2c1OC(C)C(=O)N2 (stereo not shown) [Compound 373, 3-Chloro-N-cyclopropyl-4-(4-((8-methoxy-2-methyl-3-oxo-3,4-dihydro-2H-benzo[b][1,4]oxazin-6-yl)methyl)piperazin-1-yl)benzamide]	3.2
31.6 nM	CCNC(=O)c1ccc(N2CCN(Cc3cc4c(c(OC)c3)OCC(=O)N4)CC2)c(C)c1 [Compound 374, N-Ethyl-4-(4-((8-methoxy-3-oxo-3,4-dihydro-2H-benzo[b][1,4]oxazin-6-yl)methyl)piperazin-1-yl)-3-methylbenzamide]	<2.0
15.8 nM	COc1cc(CN2CCN(c3ccc(C(=O)NC4CC4)cc3C)CC2)cc2c1OCC(=O)N2 [Compound 375, N-cyclopropyl-4-(4-((8-methoxy-3-oxo-3,4-dihydro-2H-benzo[b][1,4]oxazin-6-yl)methyl)piperazin-1-yl)-3-methylbenzamide]	>2.0
15.8 nM	CNC(=O)c1ccc(N2CCN(Cc3cc4c(c(OC)c3)OCC(=O)N4)CC2)c(C)c1 [Compound 376, 4-(4-((8-Methoxy-3-oxo-3,4-dihydro-2H-benzo[b][1,4]oxazin-6-yl)methyl)piperazin-1-yl)-N,3-dimethylbenzamide]	>6.0
> 200 nM	CC1Oc2ccc(CN3CCN(c4ccc(C(=O)N5CCCC5)cc4)CC3)cc2NC1=O (stereo not shown) [Compound 377, 2-Methyl-6-((4-(4-(pyrrolidine-1-carbonyl)phenyl)piperazin-1-yl)methyl)-2H-benzo[b][1,4]oxazin-3(4H)-one]	1.0
50.1 nM	CNC(=O)c1ccc(N2CCN(Cc3cc(C)c4c(c3)NC(=O)C(C)O4)CC2)c(F)c1 (stereo not shown) [Compound 380, 4-(4-((2,8-Dimethyl-3-oxo-3,4-dihydro-2H-benzo[b][1,4]oxazin-6-yl)methyl)piperazin-1-yl)-3-fluoro-N-methylbenzamide]	4.0
39.8 nM	CCNC(=O)c1ccc(N2CCN(Cc3cc(C)c4c(c3)NC(=O)C(C)O4)CC2)c(F)c1 (stereo not shown) [Compound 381, 4-(4-((2,8-Dimethyl-3-oxo-3,4-dihydro-2H-benzo[b][1,4]oxazin-6-yl)methyl)piperazin-1-yl)-N-ethyl-3-fluorobenzamide]	>2
79.4 nM	CCNC(=O)c1ccc(N2CCN(Cc3cc(C)c4c(c3)NC(=O)C(C)O4)CC2)c(Cl)c1 (stereo not shown) [Compound 382, 3-Chloro-4-(4-((2,8-dimethyl-3-oxo-3,4-dihydro-2H-benzo[b][1,4]oxazin-6-yl)methyl)piperazin-1-yl)-N-ethylbenzamide]	3.4
50.1 nM	CNC(=O)c1ccc(N2CCN(Cc3cc(C)c4c(c3)NC(=O)C(C)O4)CC2)c(Cl)c1 (stereo not shown) [Compound 383, 3-Chloro-4-(4-((2,8-dimethyl-3-oxo-3,4-dihydro-2H-benzo[b][1,4]oxazin-6-yl)methyl)piperazin-1-yl)-N-methylbenzamide]	3.2
39.8 nM	CNC(=O)c1ccc(N2CCN(Cc3cc(C)c4c(c3)NC(=O)C(C)O4)CC2)c(C)c1 (stereo not shown) [Compound 384, 4-(4-((2,8-Dimethyl-3-oxo-3,4-dihydro-2H-benzo[b][1,4]oxazin-6-yl)methyl)piperazin-1-yl)-N,3-dimethylbenzamide]	8.4
50.1 nM	CCNC(=O)c1ccc(N2CCN(Cc3cc(C)c4c(c3)NC(=O)C(C)O4)CC2)c(C)c1 (stereo not shown) [Compound 385, 4-(4-((2,8-Dimethyl-3-oxo-3,4-dihydro-2H-benzo[b][1,4]oxazin-6-yl)methyl)piperazin-1-yl)-N-ethyl-3-methylbenzamide]	5.9
50.1 nM	Cc1cc(C(=O)NC2CC2)ccc1N1CCN(Cc2cc(C)c3c(c2)NC(=O)C(C)O3)CC1 (stereo not shown) [Compound 386, N-Cyclopropyl-4-(4-((2,8-dimethyl-3-oxo-3,4-dihydro-2H-benzo[b][1,4]oxazin-6-yl)methyl)piperazin-1-yl)-3-methylbenzamide]	>5.0
50.1 nM	Cc1cc(CN2CCN(c3ccc(C(=O)NC4CC4)cc3F)CC2)cc2c1OC(C)C(=O)N2 (stereo not shown) [Compound 387, N-Cyclopropyl-4-(4-((2,8-dimethyl-3-oxo-3,4-dihydro-2H-benzo[b][1,4]oxazin-6-yl)methyl)piperazin-1-yl)-3-fluorobenzamide]	>5.0
79.4 nM	Cc1cc(CN2CCN(c3ccc(C(=O)NC4CC4)cc3Cl)CC2)cc2c1OC(C)C(=O)N2 (stereo not shown) [Compound 388, 3-Chloro-N-cyclopropyl-4-(4-((2,8-dimethyl-3-oxo-3,4-dihydro-2H-benzo[b][1,4]oxazin-6-yl)methyl)piperazin-1-yl)benzamide]	6558
> 200 nM	CC1Oc2ccc(CC3CCN(c4ccccc4)CC3)cc2NC1=O (stereo not shown) [Compound 389, 2-Methyl-6-((1-phenylpiperidin-4-yl)methyl)-2H-benzo[b][1,4]oxazin-3(4H)-one]	1.1
> 200 nM	CNC(=O)c1ccc(N2CCC(Cc3ccc4c(c3)NC(=O)C(C)O4)CC2)cc1 (stereo not shown) [Compound 390, N-Methyl-4-(4-((2-methyl-3-oxo-3,4-dihydro-2H-benzo[b][1,4]oxazin-6-yl)methyl)piperidin-1-yl)benzamide]	1.0
79.4 nM	CCOc1cc(CN2CCN(c3ccc(C(=O)NC)cc3)CC2)cc2c1OC(C)C(=O)N2 (stereo not shown) [Compound 398, 4-(4-((8-Ethoxy-2-methyl-3-oxo-3,4-dihydro-2H-benzo[b][1,4]oxazin-6-yl)methyl)piperazin-1-yl)-N-methylbenzamide]	>2.0
63.1 nM	CCNC(=O)c1ccc(N2CCN(Cc3cc4c(c(OCC)c3)OC(C)C(=O)N4)CC2)c(Cl)c1 (stereo not shown) [Compound 399, 3-Chloro-4-(4-((8-ethoxy-2-methyl-3-oxo-3,4-dihydro-2H-benzo[b][1,4]oxazin-6-yl)methyl)piperazin-1-yl)-N-ethylbenzamide]	>4.0
31.6 nM	CCOc1cc(CN2CCN(c3ccc(C(=O)NC)cc3C)CC2)cc2c1OC(C)C(=O)N2 (stereo not shown) [Compound 400, 4-(4-((8-Ethoxy-2-methyl-3-oxo-3,4-dihydro-2H-benzo[b][1,4]oxazin-6-yl)methyl)piperazin-1-yl)-N,3-dimethylbenzamide]	1211
50.1 nM	CCNC(=O)c1ccc(N2CCN(Cc3cc4c(c(OCC)c3)OC(C)C(=O)N4)CC2)c(C)c1 (stereo not shown) [Compound 401, 4-(4-((8-Ethoxy-2-methyl-3-oxo-3,4-dihydro-2H-benzo[b][1,4]oxazin-6-yl)methyl)piperazin-1-yl)-N-ethyl-3-methylbenzamide]	>5000
39.8 nM	CCOc1cc(CN2CCN(c3ccc(C(=O)NC4CC4)cc3C)CC2)cc2c1OC(C)C(=O)N2 (stereo not shown) [Compound 402, N-Cyclopropyl-4-(4-((8-ethoxy-2-methyl-3-oxo-3,4-dihydro-2H-benzo[b][1,4]oxazin-6-yl)methyl)piperazin-1-yl)-3-methylbenzamide]	>10000
